The source of these data is US20250327074A1 (SHAOXING INSTITUTE, ZHEJIANG UNIVERSITY, priority 2024, published 2025).

The structures appear in SMILES notation.

One experiment concerns rare codon in EGFP reporter, HEK293T cells. The experiment in a line: LC-MS recoding efficiency of rare codons in EGFP reporter. Format: cell-based. Particulars: TCG at position 151 of EGFP; 12× tRNA; serine/glycine-free medium; 500 μM unnatural amino acid. As for the experimental part: The recoding translation system and the rare codon-bearing POI were co-transfected into HEK293T cells. Then, two methods were used to calculate the ncAA recoding rate: 1) LC-MS analysis: the protein of the POI mixture, including the fraction incorporated with ncAA and the fraction with NAA at rare codons, was purified by Ni2+-NTA beads and subjected to LC-MS analysis. The ncAA recoding rate was determined by the intensity of two fractions quantified by LC-MS. 2) TCO-PEG5000 mass tag labeling analysis: this method was suitable for quantifying the TetBu recoding rate in this work. When the protein mixture was incubated with TCO-PEG5000 mass tag, the protein incorporated with TetBu would be labeled by this mass tag and migrated much slower in SDS-PAGE.
When the recoding system (TetRS/PylTyyy) is co-expressed with a target protein carrying the recoding codon in HEK293T, the recoding codon can be translated into a natural amino acid by endogenous tRNA (Dec-tRNA), or recoding into TetBu by the engineered tRNA (Rec-tRNA), producing a mixture of protein byproducts (with a single-site mutation) and the target protein containing TetBu. Based on this, two methods were established to assess sense codon recoding efficiency: a) Liquid chromatography-mass spectrometry (LC-MS) for differentiates proteins based on molecular weight differences, and b) TCO-PEG5000 macromolecular label target proteins containing TetBu, which increases their molecular weight by 5 kDa. The shift in protein bands is detected via immunoblotting (FIG. 2).
(1) Transfection: Plasmids encoding the TetBu/PylTyyy recoding system (where xxx represents different codons and yyy represents different anticodons) were co-transfected with the plasmid mCherry-T2A-EGFP^N149XXX-6×His at a 1:1 (g:g) ratio. For a 10 cm dish, the total transfection mixture contained 20 μg DNA+[…] Lipofectamine 2000+2 mL Opti-MEM.
(2) Protein expression and purification: After 6 hours, the medium was replaced with fresh DMEM containing 200 μM TetBu for 40 hours to induce protein expression. Cells were lysed in 1 mL Modified RIPA Buffer, and the supernatant was purified using Ni-NTA beads.
(3) LC-MS analysis of recoding efficiency:Using a Waters Xevo G2-XS TOF Mass Spectrometer, the recoding efficiency of rare codons (CTA, GTA, CGT, CCG, GCG, ACG, and TCG) at the EGFP149 site was evaluated.
(2) Cell transfection and protein expression purification: HEK293T cells were seeded in 10 cm culture dishes and transfected at 60-70% confluency. For each transfection, […] of plasmid carrying mCherry-T2A-EGFPY151TCG-6×His was co-transfected with one of the following recoding system plasmids: chPhe_AcFRS/12×(U6-chPheTCGA), EcTyr_OmeYRS/12×(U6-EcTyrTCGA), or EcLeu_OmeYRS/12×(U6-EcLeuTCGA). After 6 hours, the medium was replaced with serine/glycine-free DMEM/F12 containing 500 μM of the respective unnatural amino acid. Following protein expression and purification, LC-MS was used to determine TCG recoding efficiency at position 151 of EGFP. Detailed transfection and purification protocols following section 2.2.1.2, with cell culture conditions in serine-free medium as described in Example 2.
`N[C@@H](Cc1ccc(OS(=O)(=O)O)cc1)C(=O)O` [sTyr] displayed a recoding efficiency of 85%. The same measure, in the same setting: to `C/C=C/C(=O)NCCCC[C@H](N)C(=O)O` [Kcr, ε-N-crotonyl-lysine] belongs 84%; to `CCC(=O)NCCCC[C@H](N)C(=O)O` [Kpr], 79%; to `CCCC(=O)NCCCC[C@H](N)C(=O)O` [Kbu], 74%. Still for that read-out and setting: to `CC(=O)NCCCC[C@H](N)C(=O)O` [AcK] belongs 78%; to `CC(C)(C)OC(=O)NCCCC[C@H](N)C(=O)O` [BocK, ε-N-tert-butyloxycarbonyllysine], 82%.

The test system of another experiment is TCG codon, mammalian cells. The experiment in a line: TCG codon recoding efficiency of all amino acids (Table 1). Format: cell-based. Particulars: TCG codon recoding of the unnatural amino acid with the aaRS and mutation of the same table line; class symbols. The text has this: Specific details are shown in Table 1 below, where “wt” represents the wild-type aminoacyl-tRNA synthetase, “mutation sites” indicate the positions and types of mutations related to specific unnatural amino acid binding on the wild-type aminoacyl-tRNA synthetase, and “unnatural amino acid” represents the unnatural amino acid corresponding to the mutated aminoacyl-tRNA synthetase. In the unnatural amino acid encoding efficiency, “+” indicates a recoding efficiency greater than 40%, “++” greater than 60%, and “+++” greater than 80%.
Accordingly, this application compiles all amino acids reported in the literature that are recognized by orthogonal aminoacyl-tRNA synthetases in mammalian systems and evaluates their recoding efficiency using the TCG codon as an example.
On to `N[C@@H](Cc1c[nH]c2ccc(Br)cc12)C(=O)O` [compound 414], for which the “Recoding rate (%)” value is “+ (“+” indicates a recoding efficiency greater than 40%)”. On to `CCCCCCC#Cc1ccc(C[C@H](N)C(=O)O)cc1` [compound 312], for which the “Recoding rate (%)” value is “++ (“++” greater than 60%)”. As for `CCCCC=Cc1ccc(C[C@H](N)C(=O)O)cc1` [compound 314], the “Recoding rate (%)” value is listed as “++ (“++” greater than 60%)”.

For the compound `N[C@@H](CCCS)C(=O)O` [compound 394], the “Recoding rate (%)” value is “++ (“++” greater than 60%)”. As for `CC([Se]CC(N)C(=O)O)c1cc2c(cc1[N+](=O)[O-])OCO2` (mixture of isomers) [compound 275], the “Recoding rate (%)” value is on record as “+ (“+” indicates a recoding efficiency greater than 40%)”. Same read-out and setting: to `C=CCCC[C@H](N)C(=O)O` [compound 406] belongs “+++ (“+++” greater than 80%)”; to `N[C@@H](CCc1cc(=O)oc2cc(O)ccc12)C(=O)O` [compound 347], “++ (“++” greater than 60%)”; to `CCCCC#Cc1ccc(C[C@H](N)C(=O)O)cc1` [compound 310], “+++ (“+++” greater than 80%)”. On the same count and under the same terms, with `N[C@@H](CCC(=O)OCc1ccccc1[N+](=O)[O-])C(=O)O` [compound 263] the entry was “+ (“+” indicates a recoding efficiency greater than 40%)”; with `C=CCCCCSC[C@H](N)C(=O)O` [compound 378], “++ (“++” greater than 60%)”. Same read-out and setting: with `CCCCCCCC#Cc1ccc(C[C@H](N)C(=O)O)cc1` [compound 313] the entry was “+ (“+” indicates a recoding efficiency greater than 40%)”. As for `CC(=O)c1ccc2cc(NC[C@H](N)C(=O)O)ccc2c1` [compound 391], the “Recoding rate (%)” value is on record as “++ (“++” greater than 60%)”.

For the compound `CCCCSC[C@H](N)C(=O)O` [compound 380], the “Recoding rate (%)” value is “++ (“++” greater than 60%)”.

For `N[C@@H](Cc1ccc(C(=O)c2ccc(Br)cc2)cc1)C(=O)O` [compound 344], the “Recoding rate (%)” value was “++ (“++” greater than 60%)”.

As to `CCCCCC#Cc1ccc(C[C@H](N)C(=O)O)cc1` [compound 311], the “Recoding rate (%)” value was “+++ (“+++” greater than 80%)”. For the compound `CCCCCCCCSC[C@H](N)C(=O)O` [compound 384], the “Recoding rate (%)” value is reported as “++ (“++” greater than 60%)”. As to `C#CCC(=O)Nc1ccc(C[C@H](N)C(=O)O)cc1` [compound 352], the “Recoding rate (%)” value is “+++ (“+++” greater than 80%)”. As for `CCCCCCSC[C@H](N)C(=O)O` [compound 379], the “Recoding rate (%)” value is reported as “++ (“++” greater than 60%)”. On the same count and under the same terms, to `CC(OC(=O)NCSCC(N)C(=O)O)c1cc2c(cc1[N+](=O)[O-])OCO2` (mixture of isomers) [compound 270] belongs “+ (“+” indicates a recoding efficiency greater than 40%)”; to `N[C@@H](CSCc1ccccc1[N+](=O)[O-])C(=O)O` [compound 401], “+++ (“+++” greater than 80%)”.

Staying with this experiment, now noted: TCG codon recoding of the unnatural amino acid with the aaRS and mutation of the same table line; numeric values.
Take `C=Cn1cc(C[C@H](N)C(=O)O)c2ccccc21` [compound 325]: the “Recoding rate (%)” value amounted to 59%.

For `CCOc1cc(C[Se]CC(N)C(=O)O)c([N+](=O)[O-])cc1OCC` (stereo not drawn) [compound 404], the “Recoding rate (%)” value stood at 59%. The same measure, in the same setting: to `COc1ccc(C[C@H](N)C(=O)O)cc1` [compound 332] belongs 73%; to `Cc1ccc2c(C[C@H](N)C(=O)O)c[nH]c2c1` [compound 290], 76%; to `N[C@@H](Cc1ccco1)C(=O)O` [compound 260], 43%.

Consider `N[C@@H](Cc1c[nH]c2ncccc12)C(=O)O` [compound 251], for which the “Recoding rate (%)” value amounted to 22%. Same read-out and setting: with `N[C@@H](Cc1ccc(C(=O)c2ccccc2)cc1)C(=O)O` [compound 339] the figure was 68%; with `COc1ccc2[nH]cc(C[C@H](N)C(=O)O)c2c1` [compound 413], 85%; with `N[C@@H](Cc1ccc(O)c(I)c1)C(=O)O` [compound 371], 73%.

With `N#Cc1cccc2c(C[C@H](N)C(=O)O)c[nH]c12` [compound 302], the “Recoding rate (%)” value was found to be 69%. Same read-out and setting: with `COc1ccc(C[C@H](N)C(=O)O)cc1` [compound 369] the figure was 84%. For the compound `N[C@@H](Cc1cccc(F)c1F)C(=O)O` [compound 228], the “Recoding rate (%)” value was 80? %. For the compound `N[C@@H](Cc1cccc(I)c1)C(=O)O` [compound 329], the “Recoding rate (%)” value worked out at 56%.

For a further experiment, the system named is EGFP F84TCG mutant. The experiment is described as follows: EGFP F84TCG fluorescence activation by UAA. Format: cell-based.
Details: not given
The source says: Using EGFP as an example, this example describes a general method for screening recoding sites and UAA types in protein activation regulated by UAA incorporation. In the absence of UAAs, the TCG recoding system decodes the TCG codon as serine (Ser). To maximize disruption towards protein function, we screened phenylalanine (Phe), tyrosine (Tyr), and tryptophan (Trp)—amino acids with the greatest structural divergence from Ser for potential incorporation. Following identification of Ser-substituted inactivation sites, we screened UAAs capable of rescuing protein activity, yielding optimal recoding system/UAA pairs (a-b of FIG. 22). […] This strategy was successfully extended to diverse proteins including fluorescent proteins (e.g., mCherry), enzymes (e.g., luciferase, kinases, peroxidases), and translation regulators (e.g., initiation factors, post-translational modification readers).
Consider `COc1ccc(C[C@H](N)C(=O)O)cc1` [OmeY, O-methyl-tyrosine], for which the “concentration with detectable EGFP activation” value was found to be 0.00001 mM and the “time to fluorescence activation after UAA delivery” value was ≤ 1 min.

The experiment is the same for the next values; noted with them: TCG-recoding system decoding OmeY.
On to `COc1ccc(C[C@H](N)C(=O)O)cc1` [OmeY, O-methyl-tyrosine], for which the “fluorescence enhancement upon UAA addition versus no UAA” value is > 100 fold.

For another experiment, the system named is FLucY255ACG/K529TCG mutant. The experiment is described as follows: FLuc dual caged UAA decaging luminescence assay. Particulars: dual incorporation of ONBY with TCOK/PABK. The format is cell-based. The text has this:
To established a method for orthogonal activation control of proteins, two caged UAAs are incorporated site-specifically into the active pocket or adjacent sites of target proteins through the dual rare codon recoding strategy, wherein steric hindrance leads to the protein inactivation, followed by protein activation through photochemical or chemical decaging strategies. The TCG/ACG dual recoding system decodes TCG/ACG sites as serine/threonine in the absence of UAAs. During the screening of FLuc, the K529 and Y255 site are identified with minimal background upon serine incorporation and threonine incorporation respectively, which were subsequently used for dual caged UAA incorporation. Using the FLucY255ACG/K529TCG mutant as an example, the TCG recoding system decoding ONBY, the ACG recoding system decoding TCOK/PABK, and reporter genes were co-transfected into cells, followed by luminescence assay to evaluate protein activation.
With `N[C@@H](Cc1ccc(OCc2ccccc2[N+](=O)[O-])cc1)C(=O)O` [ONBY], the “FLuc activity in the presence of both caged UAAs, before decaging” value is “nearly complete inactivation”. On the same count and under the same terms, with `N[C@@H](CCCCNC(=O)OC1/C=C/CCCCC1)C(=O)O` (stereo partly drawn) [TCOK] the entry was “nearly complete inactivation”; with `[N-]=[N+]=Nc1ccc(COC(=O)NCCCC[C@H](N)C(=O)O)cc1` [PABK], “nearly complete inactivation”.
